Results taken from PubChem BioAssay AID330 (DTP/NCI, 2004).
Several values for one entry are separate records, joined by “and”; a condition that tells them apart may be missing. Equal values may be shown once. Toxic doses and inconclusive results are not listed. Rule for the calls: active = survival T/C of 150% or more; inactive = T/C below 125% in these data.

Tested on: P388 leukemia ip, CD2F1 mice, survival T/C
Assay: NCI In Vivo Anticancer Drug Screen. Data for tumor model P388 Leukemia (intraperitoneal) in CD2F1 (CDF1) mice
Conditions: endpoint: median survival time, higher = longer survival
Outline: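 Mice carrying the transplanted tumor received test compound or vehicle. Survival was recorded in each group, and the value is the treated-group measurement divided by that of the vehicle-treated control group.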

[1] = dose: 50.0 mg/kg/injection, schedule: Q01DX009 (ip), vehicle: saline
[2] = dose: 100.0 mg/kg/injection, schedule: Q01DX009 (ip), vehicle: saline
[3] = dose: 50.0 mg/kg/injection, schedule: Q01DX005 (ip), vehicle: saline with Tween-80
[4] = dose: 100.0 mg/kg/injection, schedule: Q01DX005 (ip), vehicle: saline with Tween-80
[5] = dose: 200.0 mg/kg/injection, schedule: Q01DX005 (ip), vehicle: saline with Tween-80
[6] = dose: 60.0 mg/kg/injection, schedule: Q01DX005 (ip), vehicle: saline with Tween-80
[7] = dose: 120.0 mg/kg/injection, schedule: Q01DX005 (ip), vehicle: saline with Tween-80
[8] = dose: 240.0 mg/kg/injection, schedule: Q01DX005 (ip), vehicle: saline with Tween-80
[9] = dose: 25.0 mg/kg/injection, schedule: Q01DX009 (ip), vehicle: Klucel (hydroxypropylcellulose) (HPC)
[10] = dose: 25.0 mg/kg/injection, schedule: Q01DX005 (ip), vehicle: Klucel (hydroxypropylcellulose) (HPC)
[11] = dose: 50.0 mg/kg/injection, schedule: Q01DX005 (ip), vehicle: Klucel (hydroxypropylcellulose) (HPC)
[12] = dose: 200.0 mg/kg/injection, schedule: Q01DX009 (ip), vehicle: saline
[13] = dose: 100.0 mg/kg/injection, schedule: Q01DX005 (ip), vehicle: Klucel (hydroxypropylcellulose) (HPC)
[14] = dose: 200.0 mg/kg/injection, schedule: Q01DX005 (ip), vehicle: Klucel (hydroxypropylcellulose) (HPC)

Measured: T/C

O=C1C(C(=Nc2ccc(Cl)cc2)c2ccccc2)=C(O)c2ccccc21
inactive: dose: 25.0 mg/kg/injection, schedule: Q04DX002 (ip), vehicle: saline with Tween-80 95 % of control | dose: 50.0 mg/kg/injection, schedule: Q04DX002 (ip), vehicle: saline with Tween-80 95 % of control | dose: 100.0 mg/kg/injection, schedule: Q04DX002 (ip), vehicle: saline with Tween-80 95 % of control

Cc1ccc(-n2nc(C)cc2C)nn1
inactive: [1] 99 % of control | [2] 101 % of control

COC(=O)c1ccc(C)c(N)c1
inactive: [3] 102 % of control | [4] 104 % of control | [5] 102 % of control

O=C1C=C2C(=CCOC2O)O1 (stereo not drawn)
inactive: dose: 0.3 mg/kg/injection, schedule: Q01DX009 (ip), vehicle: saline with Tween-80 106 % of control | dose: 0.3 mg/kg/injection, schedule: Q04DX003 (ip), vehicle: saline with Tween-80 106 % of control | dose: 1.0 mg/kg/injection, schedule: Q04DX003 (ip), vehicle: saline with Tween-80 114 % of control | dose: 2.0 mg/kg/injection, schedule: Q01DX009 (ip), vehicle: Klucel (hydroxypropylcellulose) (HPC) 117 % of control and 123 % of control | dose: 4.0 mg/kg/injection, schedule: Q01DX009 (ip), vehicle: Klucel (hydroxypropylcellulose) (HPC) 106 % of control and 123 % of control | dose: 10.0 mg/kg/injection, schedule: Q04DX003 (ip), vehicle: saline with Tween-80 113 % of control

[Mn+2].[Mn+2].c1ccc2c(c1)-c1nc-2nc2[n-]c(nc3nc(nc4[n-]c(n1)c1ccccc41)-c1ccccc1-3)c1cc3c4nc5nc(nc6[n-]c(nc7nc(nc([n-]4)c3cc21)-c1ccccc1-7)c1ccccc61)-c1ccccc1-5
inactive: [6] 96 % of control | [7] 99 % of control | [8] 106 % of control

Cn1cnc2cc(NCc3ccccc3)c([N+](=O)[O-])cc2c1=O
inactive: dose: 100.0 mg/kg/injection, schedule: Q04DX003 (ip), vehicle: Klucel (hydroxypropylcellulose) (HPC) 100 % of control | dose: 200.0 mg/kg/injection, schedule: Q04DX003 (ip), vehicle: Klucel (hydroxypropylcellulose) (HPC) 106 % of control | dose: 400.0 mg/kg/injection, schedule: Q04DX003 (ip), vehicle: Klucel (hydroxypropylcellulose) (HPC) 101 % of control

O=[N+]([O-])c1ccc2nccc(Cl)c2c1
inactive: dose: 12.5 mg/kg/injection, schedule: Q01DX009 (ip), vehicle: Klucel (hydroxypropylcellulose) (HPC) 95 % of control | [9] 100 % of control

COC1/C=C\OC2(C)Oc3c(C)c(O)c4c(O)c(c5[nH]c(-c6ccccc6)nc5c4c3C2=O)NC(=O)/C(C)=C\C=C\C(C)C(O)C(C)C(O)C(C)C(OC(C)=O)C1C (stereo not drawn)
inactive: [9] 106 % of control | dose: 50.0 mg/kg/injection, schedule: Q01DX009 (ip), vehicle: Klucel (hydroxypropylcellulose) (HPC) 100 % of control | dose: 100.0 mg/kg/injection, schedule: Q01DX009 (ip), vehicle: Klucel (hydroxypropylcellulose) (HPC) 88 % of control

COc1ccc(/C=N/Nc2cc(C)nc3ccc(F)cc23)c2ccccc12
inactive: dose: 12.5 mg/kg/injection, schedule: Q01DX005 (ip), vehicle: Klucel (hydroxypropylcellulose) (HPC) 97 % of control | [10] 98 % of control | [11] 99 % of control

CC(NC(=O)OC(C)(C)C)C(=O)NC(C)C(=O)NC(C)C(=O)Nc1ccc([N+](=O)[O-])cc1 (stereo not drawn)
inactive: [3] 94 % of control | [4] 92 % of control | [5] 87 % of control

Cc1ccc2ccc(N(C)C)cc2n1
inactive: dose: 50.0 mg/kg/injection, schedule: Q01DX009 (ip), vehicle: saline with Tween-80 100 % of control | dose: 100.0 mg/kg/injection, schedule: Q01DX009 (ip), vehicle: saline with Tween-80 107 % of control

O=C1CCC(CBr)(C(=O)O)O1 (stereo not drawn)
inactive: [1] 102 % of control | [2] 111 % of control | [12] 100 % of control

CCN(CC)CCOC1CC(C)CCC1C(C)C (stereo not drawn)
inactive: dose: 50.0 mg/kg/injection, schedule: Q01DX005 (ip), vehicle: saline 111 % of control | dose: 100.0 mg/kg/injection, schedule: Q01DX005 (ip), vehicle: saline 100 % of control | dose: 200.0 mg/kg/injection, schedule: Q01DX005 (ip), vehicle: saline 100 % of control

O=C1c2cccc([N+](=O)[O-])c2C(=O)N1CC[P+](c1ccccc1)(c1ccccc1)c1ccccc1
inactive: dose: 0.78 mg/kg/injection, schedule: Q01DX009 (ip), vehicle: water 97 % of control | dose: 1.56 mg/kg/injection, schedule: Q01DX009 (ip), vehicle: water 100 % of control | dose: 3.13 mg/kg/injection, schedule: Q01DX009 (ip), vehicle: water 94 % of control | dose: 6.25 mg/kg/injection, schedule: Q01DX009 (ip), vehicle: water 97 % of control | dose: 12.5 mg/kg/injection, schedule: Q01DX009 (ip), vehicle: water 95 % of control | dose: 25.0 mg/kg/injection, schedule: Q01DX009 (ip), vehicle: water 100 % of control | dose: 50.0 mg/kg/injection, schedule: Q01DX009 (ip), vehicle: water 109 % of control | dose: 100.0 mg/kg/injection, schedule: Q01DX009 (ip), vehicle: water 107 % of control

O=c1ccocc1CN1CCCCC1
inactive: [1] 100 % of control | [2] 99 % of control | [12] 99 % of control

COc1cc(C(Nc2ncccn2)c2cc3c(cc2OC(C)=O)OCO3)cc(OC)c1OC(C)=O (stereo not drawn)
inactive: [6] 105 % of control | [7] 100 % of control | [8] 99 % of control

O=C(OCc1ccccc1)ON1C(=O)C2C3C=CC(C3)C2C1=O (stereo not drawn)
inactive: [11] 115 % of control | [13] 110 % of control

CCOC(=O)C1=CNc2c(C#N)cnn2C12C(=O)Oc1ccc(OC)cc12 (stereo not drawn)
inactive: [10] 109 % of control | [11] 105 % of control | [13] 105 % of control | [14] 105 % of control

O=S1(=O)Oc2c(Cl)cc(Cl)cc2S(=O)(=O)Oc2c(Cl)cc(Cl)cc21
inactive: [6] 93 % of control | [7] 94 % of control | [8] 86 % of control

O=C(c1ccccc1)C1Nc2ccccc2CO1 (stereo not drawn)
inactive: dose: 60.0 mg/kg/injection, schedule: Q01DX005 (ip), vehicle: Klucel (hydroxypropylcellulose) (HPC) 99 % of control | dose: 120.0 mg/kg/injection, schedule: Q01DX005 (ip), vehicle: Klucel (hydroxypropylcellulose) (HPC) 107 % of control | dose: 240.0 mg/kg/injection, schedule: Q01DX005 (ip), vehicle: Klucel (hydroxypropylcellulose) (HPC) 97 % of control

O=c1c2ccccc2c(=O)n2n1CCC2O (stereo not drawn)
inactive: [1] 108 % of control | [2] 101 % of control | [12] 101 % of control

CC(=O)CCC(=O)[O][Bi]([c]1ccccc1)[c]1ccccc1
inactive: [11] 110 % of control | [13] 114 % of control | [14] 114 % of control

C=CC1(C)N=C1N(C)C (stereo not drawn)
inactive: [1] 105 % of control | [2] 97 % of control | [12] 96 % of control

CCCS(=O)(=O)/C=C/C(=O)c1ccc2ccccc2c1
inactive: dose: 100.0 mg/kg/injection, schedule: Q04DX003 (ip), vehicle: saline 105 % of control | dose: 200.0 mg/kg/injection, schedule: Q04DX003 (ip), vehicle: saline 108 % of control | dose: 400.0 mg/kg/injection, schedule: Q04DX003 (ip), vehicle: saline 106 % of control

Cc1onc(-c2c(F)cccc2Cl)c1C(=O)Nc1cc2cc([N+](=O)[O-])ccc2oc1=O
inactive: [6] 95 % of control | [7] 97 % of control | [8] 92 % of control

C=C(CN(C)C)C(=O)c1ccc(Oc2ccccc2)cc1
inactive: dose: 0.93 mg/kg/injection, schedule: Q01DX005 (ip), vehicle: saline 104 % of control | dose: 1.87 mg/kg/injection, schedule: Q01DX005 (ip), vehicle: saline 100 % of control | dose: 3.75 mg/kg/injection, schedule: Q01DX005 (ip), vehicle: saline 100 % of control
